Results as given in PubChem BioAssay AID330 (DTP/NCI, 2004).
“And” between values parts separate entries of the source, which are not always exact repeats. Equal entries are not always repeated. Toxic doses and inconclusive results are not listed. The calls were made as follows: active = survival T/C of 150% or more; inactive = T/C below 125% in these data. Peptide text beside a SMILES is read from it.

System: P388 leukemia ip, CD2F1 mice, survival T/C
Experiment: NCI In Vivo Anticancer Drug Screen. Data for tumor model P388 Leukemia (intraperitoneal) in CD2F1 (CDF1) mice
Settings: endpoint: median survival time, higher = longer survival
How it was run: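 Mice carrying the transplanted tumor received test compound or vehicle. Survival was recorded in each group, and the value is the treated-group measurement divided by that of the vehicle-treated control group.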

[1] = dose: 50.0 mg/kg/injection, schedule: Q01DX005 (ip), vehicle: saline
[2] = dose: 100.0 mg/kg/injection, schedule: Q01DX005 (ip), vehicle: saline
[3] = dose: 200.0 mg/kg/injection, schedule: Q01DX005 (ip), vehicle: saline
[4] = dose: 100.0 mg/kg/injection, schedule: Q01DX009 (ip), vehicle: suspension in saline
[5] = dose: 200.0 mg/kg/injection, schedule: Q01DX009 (ip), vehicle: suspension in saline
[6] = dose: 50.0 mg/kg/injection, schedule: Q01DX005 (ip), vehicle: saline with Tween-80
[7] = dose: 100.0 mg/kg/injection, schedule: Q01DX005 (ip), vehicle: saline with Tween-80
[8] = dose: 200.0 mg/kg/injection, schedule: Q01DX005 (ip), vehicle: saline with Tween-80
[9] = dose: 50.0 mg/kg/injection, schedule: Q01DX009 (ip), vehicle: Klucel (hydroxypropylcellulose) (HPC)
[10] = dose: 100.0 mg/kg/injection, schedule: Q01DX009 (ip), vehicle: Klucel (hydroxypropylcellulose) (HPC)
[11] = dose: 200.0 mg/kg/injection, schedule: Q01DX009 (ip), vehicle: Klucel (hydroxypropylcellulose) (HPC)
[12] = dose: 100.0 mg/kg/injection, schedule: Q01DX001 (ip), vehicle: saline with Tween-80
[13] = dose: 200.0 mg/kg/injection, schedule: Q01DX001 (ip), vehicle: saline with Tween-80
[14] = dose: 50.0 mg/kg/injection, schedule: Q01DX009 (ip), vehicle: saline
[15] = dose: 60.0 mg/kg/injection, schedule: Q01DX005 (ip), vehicle: saline with Tween-80
[16] = dose: 120.0 mg/kg/injection, schedule: Q01DX005 (ip), vehicle: saline with Tween-80
[17] = dose: 240.0 mg/kg/injection, schedule: Q01DX005 (ip), vehicle: saline with Tween-80
[18] = dose: 60.0 mg/kg/injection, schedule: Q01DX005 (ip), vehicle: Klucel (hydroxypropylcellulose) (HPC)
[19] = dose: 120.0 mg/kg/injection, schedule: Q01DX005 (ip), vehicle: Klucel (hydroxypropylcellulose) (HPC)
[20] = dose: 240.0 mg/kg/injection, schedule: Q01DX005 (ip), vehicle: Klucel (hydroxypropylcellulose) (HPC)
[21] = dose: 50.0 mg/kg/injection, schedule: Q01DX005 (ip), vehicle: Klucel (hydroxypropylcellulose) (HPC)
[22] = dose: 100.0 mg/kg/injection, schedule: Q01DX005 (ip), vehicle: Klucel (hydroxypropylcellulose) (HPC)
[23] = dose: 200.0 mg/kg/injection, schedule: Q01DX005 (ip), vehicle: Klucel (hydroxypropylcellulose) (HPC)
[24] = dose: 400.0 mg/kg/injection, schedule: Q01DX009 (ip), vehicle: Klucel (hydroxypropylcellulose) (HPC)
[25] = dose: 50.0 mg/kg/injection, schedule: Q01DX009 (ip), vehicle: saline with Tween-80
[26] = dose: 100.0 mg/kg/injection, schedule: Q01DX009 (ip), vehicle: saline with Tween-80
[27] = dose: 200.0 mg/kg/injection, schedule: Q01DX009 (ip), vehicle: saline with Tween-80

Measured: T/C

NCC(=O)NCC(=O)O (H-Gly-Gly-OH)
inactive: [1] 100 % of control | [2] 104 % of control | [3] 100 % of control

CC(C(O)c1cc2c(c3ccccc13)CCCC2)N1CCOCC1 (stereo not given)
inactive: [4] 104 % of control | [5] 99 % of control | dose: 400.0 mg/kg/injection, schedule: Q01DX009 (ip), vehicle: suspension in saline 104 % of control

CCN(CC)CCNc1ccc(CO)c2oc3ccc(OS(=O)(=O)c4ccc(C)cc4)cc3c(=O)c12
inactive: [6] 99 % of control | [7] 106 % of control | [8] 122 % of control

OC1CC2CCCCC2CC1Cl (stereo not given)
inactive: [9] 90 % of control | [10] 100 % of control | [11] 100 % of control

CC(NCCNC(C)C(=O)O)C(=O)O (stereo not given)
inactive: [1] 101 % of control | [2] 103 % of control | [3] 100 % of control

Cn1c(Cl)c(/C=N\Nc2ccc([N+](=O)[O-])cc2[N+](=O)[O-])c2ccccc21
inactive: [12] 92 % of control | [13] 93 % of control | dose: 400.0 mg/kg/injection, schedule: Q01DX001 (ip), vehicle: saline with Tween-80 91 % of control

COc1cccc(OC)c1OCc1ccc(OCc2ccccc2)cc1
inactive: [6] 100 % of control | [7] 95 % of control | [8] 105 % of control

CC(C)C1(C(C)C)OCCO1
inactive: [14] 100 % of control | dose: 100.0 mg/kg/injection, schedule: Q01DX009 (ip), vehicle: saline 109 % of control | dose: 200.0 mg/kg/injection, schedule: Q01DX009 (ip), vehicle: saline 109 % of control

CCN=C(c1ccc(NC(=O)c2ccc(C(=O)Nc3ccc(C(=NCC)N(CC)CC)cc3)c(Cl)c2)cc1)N(CC)CC
inactive: dose: 0.05 mg/kg/injection, schedule: Q01DX005 (ip), vehicle: saline 104 % of control | dose: 0.09 mg/kg/injection, schedule: Q01DX005 (ip), vehicle: saline 87 % of control | dose: 0.19 mg/kg/injection, schedule: Q01DX005 (ip), vehicle: saline 97 % of control | dose: 0.39 mg/kg/injection, schedule: Q01DX005 (ip), vehicle: saline 102 % of control and 97 % of control

Cc1cc(C(=O)CSC(=S)SC(C)(C)C)ccc1Cl
inactive: [15] 100 % of control | [16] 96 % of control | [17] 90 % of control

Cc1ccc2ncc(C)c(/C=C/c3ccc(N(C)C)cc3)c2c1
inactive: dose: 50.0 mg/kg/injection, schedule: Q01DX001 (ip), vehicle: saline with Tween-80 108 % of control | [12] 112 % of control | [13] 122 % of control

O=C(Cn1nnc(N2CCOCC2)n1)N/N=C/c1ccccc1Cl
inactive: [18] 91 % of control | [19] 87 % of control | [20] 87 % of control

CCOC(=Nc1ccc(OCC)cc1)SC(c1ccccc1)(c1ccccc1)c1ccccc1
inactive: [6] 104 % of control | [7] 98 % of control | [8] 91 % of control

c1ccc(-n2ccnc2C2C3CCN2CC3)cc1 (stereo not given)
inactive: dose: 12.5 mg/kg/injection, schedule: Q01DX009 (ip), vehicle: saline 104 % of control | dose: 25.0 mg/kg/injection, schedule: Q01DX009 (ip), vehicle: saline 104 % of control | [14] 111 % of control and 97 % of control

Fc1ccc(Nc2c3ccccc3nc3c2cnn3-c2ccccc2)cc1
inactive: [21] 91 % of control | [18] 86 % of control | [22] 87 % of control | [23] 87 % of control | [20] 90 % of control

COc1ccc(/C=C2/N=C(c3ccccc3)OC2=O)cc1
inactive: [15] 93 % of control | [16] 93 % of control | [17] 87 % of control

O=C(Oc1ccc(Cl)cc1Cl)c1ccc([N+](=O)[O-])cc1
inactive: [10] 96 % of control | [11] 87 % of control | [24] 96 % of control

CCOC(=O)c1ccc2cc(C)c3ccc(N)nc3n2c1=O
inactive: dose: 25.0 mg/kg/injection, schedule: Q01DX005 (ip), vehicle: saline with Tween-80 93 % of control | [6] 98 % of control | [7] 92 % of control and 93 % of control | [8] 88 % of control

NNC(=O)OC12CC3CC(CC(C3)C1)C2
inactive: dose: 25.0 mg/kg/injection, schedule: Q01DX009 (ip), vehicle: saline with Tween-80 110 % of control | [25] 110 % of control

CC1=C(CC/C(C)=C/CC[C@@]2(C)CC[C@H](C(C)C(=O)O)OO2)C(C)(C)CCC1 (stereo not given in full)
inactive: dose: 4.38 mg/kg/injection, schedule: Q01DX005 (ip), vehicle: saline + Tween-80 + alcohol 97 % of control | dose: 8.75 mg/kg/injection, schedule: Q01DX005 (ip), vehicle: saline + Tween-80 + alcohol 102 % of control | dose: 17.5 mg/kg/injection, schedule: Q01DX005 (ip), vehicle: saline + Tween-80 + alcohol 94 % of control | dose: 35.0 mg/kg/injection, schedule: Q01DX005 (ip), vehicle: saline + Tween-80 + alcohol 94 % of control

CCN(CCO)CC(O)Cn1cnc2c(N)ncnc21 (stereo not given)
inactive: [18] 95 % of control | [19] 94 % of control | [20] 97 % of control

CC1CC(C)(C)C2=NCCN21 (stereo not given)
inactive: dose: 6.25 mg/kg/injection, schedule: Q01DX009 (ip), vehicle: water 105 % of control | dose: 12.5 mg/kg/injection, schedule: Q01DX009 (ip), vehicle: water 100 % of control | dose: 15.0 mg/kg/injection, schedule: Q01DX005 (ip), vehicle: saline 106 % of control | dose: 25.0 mg/kg/injection, schedule: Q01DX009 (ip), vehicle: water 107 % of control | dose: 30.0 mg/kg/injection, schedule: Q01DX005 (ip), vehicle: saline 106 % of control | dose: 50.0 mg/kg/injection, schedule: Q01DX009 (ip), vehicle: water 107 % of control | dose: 60.0 mg/kg/injection, schedule: Q01DX005 (ip), vehicle: saline 99 % of control and 100 % of control

CN1Cc2c(N)cccc2C(c2ccccc2)C1 (stereo not given)
inactive: [9] 96 % of control | [10] 105 % of control

Cc1[nH]c2c(ccc3c2ccc2c(=O)c(Cl)c(C)[nH]c23)c(=O)c1Cl
inactive: [6] 96 % of control | [7] 95 % of control | [8] 94 % of control

O=C1C=CC(=O)C2=C1C1C3=C(C(=O)C=CC3=O)C2c2ccccc21
inactive: [25] 110 % of control | [26] 106 % of control | [27] 101 % of control

CC(=O)Nc1ccc(S(=O)(=O)NCCSS(=O)(=O)O)cc1
inactive: [6] 101 % of control | [7] 109 % of control | [8] 109 % of control

CC1CC=CCC1C1NC(C(=O)O)CS1 (stereo not given)
inactive: dose: 50.0 mg/kg/injection, schedule: Q01DX009 (ip), vehicle: suspension in saline 106 % of control | [4] 107 % of control and 88 % of control | [5] 98 % of control and 96 % of control

c1cc2c3c(cccc3c1)-c1nc3c(ccc4ccccc43)nc1-2
inactive: [9] 107 % of control | [10] 101 % of control | [11] 93 % of control | [24] 107 % of control

CC1(C)C=C(Cc2ccccc2)C(=O)c2ccccc21
inactive: [26] 90 % of control | [27] 100 % of control | dose: 400.0 mg/kg/injection, schedule: Q01DX009 (ip), vehicle: saline with Tween-80 95 % of control

CN(C)S(=O)(=O)CCNC(=O)N(CCCl)N=O
119 % of control and 218 % of control: dose: 10.0 mg/kg/injection, schedule: Q01DX005 (ip), vehicle: saline
inactive: dose: 2.5 mg/kg/injection, schedule: Q01DX005 (ip), vehicle: saline 100 % of control | dose: 5.0 mg/kg/injection, schedule: Q01DX005 (ip), vehicle: saline 104 % of control
active: dose: 20.0 mg/kg/injection, schedule: Q01DX005 (ip), vehicle: saline 203 % of control and 250 % of control

O=C(O)CCC(=O)NC1C(NNC(=O)c2cccnc2)OC(CO)C(O)C1O (stereo not given)
inactive: [6] 101 % of control | [7] 95 % of control | [8] 101 % of control

CCOC(=O)NCCCCCCNC(=O)OCC
inactive: [21] 99 % of control and 90 % of control | [22] 90 % of control and 95 % of control | [23] 93 % of control and 98 % of control
